Assay results: the SangsterLogP compilation

Which logP does the source give for O=C1COCC(=O)N(Cc2ccccc2)CCN(Cc2ccccc2)C(=O)COCC(=O)NCCN1 here?
Its logP is 1.9.

For O=C1COCC(=O)N(Cc2ccccc2)CCN(c2ccccc2)CCN(Cc2ccccc2)C(=O)COCC(=O)NCCN1, which logP is on record?
The logP was 2.2.

For CCOC(=O)CCCCCCCCCCCN(C)C(=O)CO[C@@H](C)[C@H](C)OCC(=O)N(C)CCCCCCCCCCCC(=O)OCC, which logP is on record?
The logP was 6.2.

For O=C1CCCCCCC(=O)N(Cc2ccccc2)CCN(Cc2ccccc2)C(=O)CCCCCCC(=O)N(Cc2ccccc2)CCN1Cc1ccccc1, which logP is on record?
Its logP is 5.1.

With O=C1COCCOCC(=O)N(Cc2ccccc2)CCN(Cc2ccccc2)C(=O)COCCOCC(=O)N(Cc2ccccc2)CCN1Cc1ccccc1 as the molecule, how does the logP read?
The logP was 3.8.

With O=C1COCC(=O)N(Cc2ccccc2)CCN(Cc2ccccc2)C(=O)COCC(=O)N(Cc2ccccc2)CCN1Cc1ccccc1 as the molecule, how does the logP read?
The logP was 3.8.

For O=C(COCC(=O)N(C1CCCCC1)C1CCCCC1)N(C1CCCCC1)C1CCCCC1, which logP is on record?
Its logP is 6.7.

Which logP does the source give for O=C1COCC(=O)N(Cc2ccccc2)CCOCCN(Cc2ccccc2)C(=O)COCC(=O)N(Cc2ccccc2)CCOCCN1Cc1ccccc1 here?
The logP was 3.8.

For O=C1COCC(=O)N(Cc2ccccc2)CCN(Cc2ccccc2)C(=O)COCC(=O)N(Cc2ccccc2)CCOCCN1Cc1ccccc1, which logP is on record?
The logP was 3.8.

With CCN(Cc1ccccc1)C(=O)COCC(=O)N(CC)Cc1ccccc1 as the molecule, how does the logP read?
Its logP is 2.5.

Which logP does the source give for O=C1COCC(=O)N(Cc2ccccc2)CCN(c2ccccc2)CCN(Cc2ccccc2)C(=O)COCC(=O)N(Cc2ccccc2)CCN1Cc1ccccc1 here?
Its logP is 5.2.

For O=C1COCC(=O)N(Cc2ccccc2)CCN(c2ccc(F)cc2)CCN(Cc2ccccc2)C(=O)COCC(=O)N(Cc2ccccc2)CCN1Cc1ccccc1, which logP is on record?
The logP was 5.2.
